Values joined by “and” are separate entries in the source; they are usually repeats but may differ in a detail not shown here. Equal values may be shown once. Where a name gives a salt, the structure may show the parent alone. Read-outs that look alike come from different tables or passages of the source.
Legend:
[1] = test system: rat colon circular muscle strips; format: cell-based; parameters: unit not given here; conditions: rat colonic strips, EFS
[2] = test system: human colon circular muscle strips; format: cell-based; conditions: human colonic strips, EFS
[3] = biological target: acetyl choline esterase (Homo sapiens, UniProt P22303); test: In vitro assessment with a human acetyl choline esterase preparation; format: biochemical
acetyl choline esterase, sequence (P22303 32-614): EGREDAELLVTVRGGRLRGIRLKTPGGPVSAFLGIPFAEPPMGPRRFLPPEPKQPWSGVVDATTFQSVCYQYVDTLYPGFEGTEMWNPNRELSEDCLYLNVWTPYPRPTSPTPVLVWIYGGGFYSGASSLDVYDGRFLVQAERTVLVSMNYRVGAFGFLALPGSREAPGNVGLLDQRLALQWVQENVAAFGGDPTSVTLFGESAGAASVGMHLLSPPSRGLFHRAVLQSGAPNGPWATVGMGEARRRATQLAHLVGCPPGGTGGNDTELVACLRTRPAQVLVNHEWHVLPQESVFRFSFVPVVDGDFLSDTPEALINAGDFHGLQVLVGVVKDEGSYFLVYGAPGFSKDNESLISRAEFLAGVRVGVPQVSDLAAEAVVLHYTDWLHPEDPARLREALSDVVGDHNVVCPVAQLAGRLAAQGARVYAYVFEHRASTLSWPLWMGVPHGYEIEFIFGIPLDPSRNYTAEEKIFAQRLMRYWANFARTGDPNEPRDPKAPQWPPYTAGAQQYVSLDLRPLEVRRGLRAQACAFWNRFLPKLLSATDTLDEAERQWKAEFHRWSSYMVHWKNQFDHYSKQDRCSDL

[4] = for Simulated gastric fluid (pH 1.1): % remaining after 2 h/37° C. / Simulated intestinal fluid (pH 6.8): % remaining after 2 h/37° C.: simulated gi fluid
[5] = test system: ferret; conditions: for Total number of individual incidences of: Retching / Total number of individual incidences of: Vomiting: individual ferrets, 150 mg/kg oral, naloxone 0.5 mg/kg s.c. pretreatment, observed 2 hours
[6] = Beagle, dog, in vivo, po, 1 mg/kg
[7] = test system: gastro-intestinal motility in the rat; test: Charcoal propulsion test (gastro-intestinal motility) in the rat; conditions: oral; for delay of the passage of the charcoal meal (gut motility): 30 mg/kg dose or equimolar dose of prodrug
[8] = test system: guinea pig small intestine myenteric plexus longitudinal muscle; test: tissue or blood; format: cell-based; conditions: for EC50: Cavia porcellus, read-out: EC50 for inhibition of contractility
[9] = listed as meptazinol valine carbamate
[10] = female, ferret, in vivo, po, 150 mg/kg
[11] = 10 mg/kg, 60 min before charcoal, 30 min after charcoal

With `CCC1(c2cccc(OC(=O)N[C@H](C(=O)O)C(C)C)c2)CCCCN(C)C1` (stereo partly drawn) [Meptazinol valine carbamate, meptazinol-(S)-valine carbamate trifluoroacetate] the “Mean force of contraction ± sd” value ([1]; 0.01 μM) was 104.47, the “Mean force of contraction ± sd” value ([1]; 0.1 μM) was 121.87 and the “Mean force of contraction ± sd” value ([1]; 0.5 μM) was 86.04. The “Mean force of contraction ± sd” value ([1]; 1.0 μM) was 75.22, the “Mean force of contraction ± sd” value ([1]; 10 μM) was 65.57 and the “Mean force of contraction ± sd” value ([1]; 100 μM) was 75.17. The “Mean force of contraction ± sd” value ([2]; 0.01 μM) was 89.77, the “Mean force of contraction ± sd” value ([2]; 0.1 μM) was 83.63 and the “Mean force of contraction ± sd” value ([2]; 0.5 μM) was 79.00. For the same molecule, the “Mean force of contraction ± sd” value ([2]; 1.0 μM) was 80.56, the “Mean force of contraction ± sd” value ([2]; 10 μM) was 76.92 and the “Mean force of contraction ± sd” value ([2]; 100 μM) was 79.25. For the same molecule, the “acetyl choline esterase inhibitory action” value [3] was “loss of acetyl choline esterase inhibitory action”, the “Distilled water (pH 5.9): % remaining after 2 h/20° C.” value (“Distilled water (pH 5.9): % remaining” below) [4] was 100% and the “Simulated gastric fluid (pH 1.1): % remaining after 2 h/37° C.” value [4] was 100%. For the same molecule, the “Simulated intestinal fluid (pH 6.8): % remaining after 2 h/37° C.” value [4] was 99%, the “animals demonstrating any retching and vomiting” value ([5]; group of five ferrets, comparable molar dose, 2 hours) was “only one” and the “Total number of individual incidences of: Retching” value [5] was 0 (4×) and 2. For the same molecule, the “Total number of individual incidences of: Vomiting” value [5] was 0 (4×) and 1, the “Total number of individual incidences of: Retching” value [5, 9] was 2 and the “Total number of individual incidences of: Vomiting” value [5, 9] was 1.

With `CCC1(c2cccc(O)c2)CCCCN(C)C1` (stereo not drawn) [Meptazinol] the “T½” value [6] was 2.8 h, the “animals that exhibited retching and emesis” value [5, 10] was 50% and the “episodes of vomiting in animals that responded” value [5, 10] was 1-17. For the same molecule, the “retches observed in a 2 hour period in animals that responded” value [5, 10] was 5-66.

With `CN1CC[C@]23c4c5ccc(O)c4O[C@H]2C(=O)CC[C@@]3(O)[C@H]1C5` [Oxymorphone] the “T½” value [6] was 2.2 h, the “% change from vehicle-treated animals, Small intestine” value (shortened to “% change … Small intestine”) ([7]; 1 mg/kg) was −5.0% and the “% change from vehicle-treated animals, Total gut length” value (“% change … Total gut length” for short) ([7]; 1 mg/kg) was −4.5%. The “% change … Small intestine” value ([7]; 3 mg/kg) was −9.5%, the “% change … Total gut length” value ([7]; 3 mg/kg) was −9.4% and the “% change … Small intestine” value ([7]; 10 mg/kg) was −24.1%. For the same molecule, the “% change … Total gut length” value ([7]; 10 mg/kg) was −24.1%, the “% change … Small intestine” value ([7]; 30 mg/kg) was −69.5% and the “% change … Total gut length” value ([7]; 30 mg/kg) was −69.8%. For the same molecule, the “delay of the passage of the charcoal meal (gut motility)” value [7] was 70% and the EC50 [8] was 12.9 nM.

For `CC(C)C(NC(=O)Oc1ccc2c3c1O[C@H]1C(=O)CC[C@@]4(O)[C@@H](C2)N(C)CC[C@]314)C(=O)O` (stereo partly drawn) [Oxymorphone valine carbamate, oxymorphone-(S)-valine carbamate hydrochloride], the “% change … Small intestine” value ([7]; 10 mg/kg) was −4.9%, the “% change … Total gut length” value ([7]; 10 mg/kg) was −3.9% and the “Group mean distance travelled by charcoal as % of (±sd) Small intestine” value [7, 11] was 68.5 ± 7.85%. For the same molecule, the “Group mean distance travelled by charcoal as % of (±sd) Total gut length” value [7, 11] was 58.9 ± 6.95%, the “% change … Small intestine” value ([7]; 30 mg/kg) was −13.7% and the “% change … Total gut length” value ([7]; 30 mg/kg) was −13.1%. The “delay of the passage of the charcoal meal (gut motility)” value [7] was 14%, the Fold difference [8] was 15.5 and the EC50 [8] was 200 nM. The “Distilled water (pH 5.9): % remaining” value [4] was 100%, the “Simulated gastric fluid (pH 1.1): % remaining after 2 h/37° C.” value [4] was 100% and the “Simulated intestinal fluid (pH 6.8): % remaining after 2 h/37° C.” value [4] was 97%.

For `CC(C)[C@@H](NC(=O)OC1=C2OC3C(=O)CCC4[C@H]5CC(CC1)C2[C@@]34CCN5C)C(=O)O` (stereo partly drawn) [Hydromorphone valine carbamate, hydromorphone-(S)-valine carbamate trifluoroacetate], the “Distilled water (pH 5.9): % remaining” value [4] was 100%, the “Simulated gastric fluid (pH 1.1): % remaining after 2 h/37° C.” value [4] was 100% and the “Simulated intestinal fluid (pH 6.8): % remaining after 2 h/37° C.” value [4] was 98%.

— patent US20090192095A1 (priority 2008, published 2009)
